According to PubChem BioAssay AID720585 (Broad Institute, 2013):
Calls of active or inactive are those of the source.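 The calls were made as follows: active = fitted curve falling to -50% or lower, with AC50 no more than twice the sample's top valid dose; inactive = the rest, including changes in the wrong direction.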

Test system: not listed separately
Assay: ATP-based viability loss in A549 cells – cell-based, CellTiter-Glo luminescence, dry powder samples, cytotoxicity control, dose response (AID 720585)
Conditions: A549 viability, CellTiter-Glo ATP luminescence, 72 h; at 26 µM (top of the series)

Row | SMILES | activity change, negative = cytotoxicity
1 | O=C(Nc1cccnc1)c1cnn2c(C(F)F)cc(C3CC3)nc12 | -2.75% (inactive)
2 | O=C(Nc1ccc2[nH]ccc2c1)N1CCN(c2ccccc2)CC1 | -0.377% (inactive)
3 | COc1cccc(NC(=O)CCC2CCN(C(=O)c3ccc(C(C)=O)s3)CC2)c1 | -3.35% (inactive)
4 | O=C(c1ccc2c(c1)OCO2)N1CCN(Cc2ccccc2)CC1 | 9.39% (inactive)
5 | CCOC(=O)N1CCN(C(=O)Nc2ccc3snnc3c2)CC1 | -11% (inactive)
6 | CC(=O)c1ccc(N2CCN(C(=O)c3cccc(F)c3)CC2)cc1 | -1.71% (inactive)
7 | Cc1nc2ccc(NC(=O)N3CCN(c4ccccc4)CC3)cc2s1 | 0.35% (inactive)
8 | O=C(c1ccc2c(c1)OCO2)N1CCN(c2ccc(F)cc2)CC1 | -0.413% (inactive)
9 | CC(=O)c1ccc(N2CCN(C(=O)c3ccc(Cl)cc3)CC2)cc1 | 3.76% (inactive)
10 | Cc1ccc(/C=C(\CCC(=O)O)c2nc3ccccc3s2)cc1 | -2.14% (inactive)
11 | O=C(Nc1ccc(F)cc1)N1CCN(c2ccccc2)CC1 | -4.84% (inactive)
12 | Cc1cccc(/C=C(\CCC(=O)O)c2nc3ccccc3s2)c1 | -7.62% (inactive)
13 | CC(=O)c1ccc(N2CCN(C(=O)c3ccc4ncsc4c3)CC2)cc1 | 2.15% (inactive)
14 | COc1ccc(N2CCN(C(=O)c3ccc4c(c3)OCO4)CC2)cc1 | -3.29% (inactive)
15 | O=C(Nc1ccc2snnc2c1)N1CCCCC1 | -9.31% (inactive)
16 | CC(=O)c1ccc(N2CCN(Cc3ccc4c(c3)OCO4)CC2)cc1 | -4.27% (inactive)
17 | Cc1ccc(/C=C(\CC(=O)O)c2nc3ccccc3s2)cc1[N+](=O)[O-] | 7.43% (inactive)
18 | Cc1cc(C)n2nc(C(=O)Nc3cccnc3)cc2n1 | 0.879% (inactive)
19 | Cc1ccc(/C=C(\CCC(=O)O)c2nc3ccccc3s2)cc1[N+](=O)[O-] | -3.79% (inactive)
20 | CCc1ccc(C(=O)N2CCN(Cc3ccc4c(c3)OCO4)CC2)cc1 | -0.901% (inactive)
21 | CC(=O)c1ccc(N2CCN(C(=O)c3ccc(F)cc3)CC2)cc1 | -0.22% (inactive)
22 | CC(=O)c1ccc(N2CCN(C(=O)c3cccc(Cl)c3)CC2)cc1 | 4.97% (inactive)
23 | CC(=O)c1ccc(N2CCN(C(=O)c3ccc(C)cc3)CC2)cc1 | -8.81% (inactive)
24 | CCN(CC)c1ccc2cc(C(=O)c3cccs3)c(=O)oc2c1 | 7.58% (inactive)
25 | COc1cccc(NC(=O)N2CCN(c3ccccc3)CC2)c1 | 8.71% (inactive)
26 | Cc1ccc(-c2cc(C(F)(F)F)n3nc(C(=O)Nc4cccnc4)cc3n2)cc1 | -7.78% (inactive)
27 | O=C(Nc1cccc(F)c1)N1CCN(c2ccccc2)CC1 | 5.56% (inactive)

Row | SMILES | activity change, negative = cytotoxicity
28 | O=C(Nc1ccc2snnc2c1)N1CCOCC1 | 9.86% (inactive)
29 | CC(=O)c1ccc(N2CCN(C(=O)c3ccc4c(c3)OCO4)CC2)cc1 | -12.8% (inactive)
30 | COc1ccc(-c2cc(C(F)(F)F)n3nc(C(=O)Nc4cccnc4)cc3n2)cc1 | 5.08% (inactive)
31 | O=C(Nc1ccncc1)c1cc2nc(C3CC3)cc(C(F)F)n2n1 | 2.81% (inactive)
32 | COc1cc(/C=C/C(=O)Nc2cccnc2)cc(OC)c1OC | 11.1% (inactive)
33 | O=C(Nc1cccnc1)c1cc2nc(-c3cccs3)cc(C(F)(F)F)n2n1 | -3.55% (inactive)
34 | Cc1ccc(NC(=O)N2CCN(c3ccccc3)CC2)cc1 | -5.15% (inactive)
35 | COc1ccc(C(=O)N2CCN(c3ccc(C(C)=O)cc3)CC2)cc1 | 13.7% (inactive)
36 | O=C(Nc1ccc2snnc2c1)N1CCN(c2ccccc2)CC1 | -13.4% (inactive)
37 | CC(=O)c1ccc(N2CCN(C(=O)c3ccc(Br)cc3)CC2)c(F)c1 | -2.87% (inactive)
38 | O=C(Nc1cccnc1)N1CCN(c2ccccc2)CC1 | -2.28% (inactive)
39 | O=C(c1ccc2c(c1)OCO2)N1CCN(c2ccccc2)CC1 | -3.52% (inactive)
40 | O=C(Nc1cccnc1)c1cnn2c(C(F)(F)F)cc(-c3ccccc3)nc12 | -2.52% (inactive)
41 | COC(=O)c1c(C(=O)OC)c(-c2cccc(F)c2)n2c1CS(=O)C2 (centres undefined) | 2.89% (inactive)
42 | Cc1nc2cc(NC(=O)N3CCN(c4ccccc4)CC3)ccc2o1 | -4.28% (inactive)
43 | O=C(O)CC/C(=C\c1ccc([N+](=O)[O-])cc1)c1nc2ccccc2s1 | 5.24% (inactive)
44 | COc1cccc(C(=O)N2CCN(c3ccc(C(C)=O)cc3)CC2)c1 | -3.71% (inactive)
45 | O=C(COc1ccc2ccc(=O)oc2c1)N1CCN(c2ccc(F)cc2)CC1 | -15.6% (inactive)
46 | CC(C)(C)c1ccc(C(=O)N2CCN(c3ccc4c(c3)OCO4)CC2)cc1 | -3.25% (inactive)
47 | O=C(Nc1cccc(Cl)c1)N1CCN(c2ccccc2)CC1 | -1.38% (inactive)
48 | CC(=O)c1ccc(N2CCN(C(=O)c3cccnc3)CC2)cc1 | 0.559% (inactive)
49 | O=C(c1ccc2c(c1)OCO2)N1CCN(c2ccc(Cl)cc2)CC1 | -6.96% (inactive)
50 | O=C(Nc1ccc(Cl)cc1)c1cc2nc(C3CC3)cc(C(F)(F)F)n2n1 | 12.6% (inactive)
51 | COc1ccc(NC(=O)N2CCN(c3ccccc3)CC2)cc1 | -3.72% (inactive)
52 | O=C(Nc1ccccc1)N1CCN(c2ccccc2)CC1 | -0.224% (inactive)
53 | CC(=O)c1ccc(N2CCN(C(=O)c3ccc4c(c3)OCCO4)CC2)cc1 | -10.1% (inactive)
54 | O=C(O)CC/C(=C\c1ccccc1[N+](=O)[O-])c1nc2ccccc2s1 | -7.05% (inactive)

Test system: A549 viability, CellTiter-Glo ATP luminescence, 72 h
Assay: as above
Conditions: not given

Row | SMILES | AC50
55 | CC(=O)c1ccc(N2CCN(C(=O)c3ccccc3)CC2)cc1 | > 26 µM (inactive)
56 | O=C(Nc1ccc(Cl)c(-c2nc3ccccc3[nH]2)c1)c1cccnc1 | > 26 µM (inactive)
57 | Cc1cc(C)n2nc(C(=O)Nc3cccnc3)nc2n1 | > 26 µM (inactive)
58 | CCc1ccc(N2CCN(C(=O)c3ccc4c(c3)OCO4)CC2)cc1 | > 26 µM (inactive)
59 | Cc1ccccc1/C=C(\CCC(=O)O)c1nc2ccccc2s1 | > 26 µM (inactive)
